Measured values: patent US20220024910A1 (published 2022)

Which melting point does the source give for `Cc1c(C(=O)NN2CCS(=O)(=O)CC2)nn(-c2ccc(Cl)cc2Cl)c1-c1ccc(C#CCCC#N)cc1` here?
Its melting point is 278 to 280 °C.
